# Columns and labels:
# THP1 cells = assay: Western blot of phospho- and total proteins in THP1 cells stimulated with LPS; type: cell-based
# Experimental: (§1) Cells were plated at 300,000 cells per well in a 6-well plate and following an overnight incubation, treated with DMSO (vehicle control) or indicated compounds and incubated at 37° C. and 5% CO2 for the indicated times. Following treatment, cells were trypsinized and pelleted by centrifugation and washed with PBS. Total protein from the cell pellet was extracted or for fractionation, protein was fractionated into cytoplasmic and nuclear fractions using a Nuclear and Cytoplasmic Extraction Reagents (NE-PER™) kit containing Halt™ protease and phosphatase inhibitors (Thermo Fisher). Protein concentrations were quantified using the Pierce Micro BCA protein assay kit (Thermo Fisher). […] Blots were blocked with non-fat dry milk. Primary antibodies were incubated overnight at 4° C. β-actin and Lamin B1 were used as loading controls (Supplementary Table S2 for primary antibodies). Mouse and rabbit horseradish peroxidase (HRP)-conjugated secondary antibodies were diluted in 5% blocking buffer in TBS-T. Protein-antibody complexes were detected by chemiluminescence using the SuperSignal West Femto Chemiluminescent Substrate (Thermo Fisher) and images were captured with a UVP ChemiDocIt2 camera system (Fisher Scientific, Hampton, N.H.).
# FOXO1 = assay: Western blot and immunofluorescence of FOXO1 with IL1-β; type: cell-based, human; settings: hMSCs and chondrocytes; in the presence of IL-1β; compared to DMSO
# Experimental: Cells were stained with anti-FOXO1 antibody (red) and DAPI nuclear stain (blue).
# as §1
# [1] = system: cartilage of ACLT+pMMx rats; assay: Surgery-induced OA model (ACLT+pMMx), cartilage analysis; type: in vivo, rat; settings: cartilage at day 35
# Experimental: Male Sprague Dawley (SD) rats (250 g±30 g) (Charles River, Wilmington, Mass.) were used for all animal studies. All animals were treatment naïve at the start of the studies. Procedures were performed during the hours of 8 am-5 pm on weekdays in a sterile hood in the vivarium. Rats were housed in individual ventilated cages (≤3 per cage) under the following conditions:
# For Nanostring analysis and qPCR: At 10 weeks postnatal age, 32 rats were subjected to severing of the anterior cruciate, medial collateral and medial meniscotibial ligaments (ACLT+pMMx). 8 rats (male, 10 weeks old) were untreated controls (Sham). Each rat was anesthetized with an isoflurane/O2 mixture until the flexor withdrawal reflex was abolished. The surgeon wore a face mask, hair net, lab coat and shoe covers, and gloves that were disinfected with betadine or chlorhexidine. Surgery tools were sterilized with an autoclave or bead sterilizer and disinfected between animals using a bead sterilizer. After being shaved and disinfected with betadine or chlorhexidine solution, the right knee joint was exposed through a medial para-patellar approach. The medical collateral ligament (MCL) was transected with surgical scalpels. The patella was dislocated laterally, and the knee was placed in full flexion followed by anterior cruciate ligament (ACL) transection with surgical scalpels. The medial meniscus (MM) was also partially transected. After surgery, the joint surface was washed with sterile saline solution, and the capsule was sutured using Vicryl 4-0 (Ethicon, Edinburgh, UK) absorbable suture. The skin was closed with 9 mm auto clips (Mikron precision INC, Gardena Calif.). Buprenorphine (0.5 mg/kg) was administered immediately after the surgery and daily for one-week post-surgery. All the surgery, rats were allowed to move freely in plastic cages until their necropsies. […] At the indicated timepoints, animals were sacrificed using Carbon dioxide (CO2). Cartilage was isolated, flash frozen in liquid Nitrogen and stored at −80° C. until processing for RNA extraction.
# At the indicated timepoints, animals were sacrificed using Carbon dioxide (CO2). Cartilage was isolated, flash frozen in liquid Nitrogen and stored at −80° C. until processing for protein extraction.
# [2] = system: Wnt pathway gene expression in hMSCs; assay: Nanostring nCounter Wnt Pathways panel in hMSCs; type: cell-based, human; settings: >2-fold change, p<0.05, FDR corrected
# Experimental: FIGS. 2D and 2E depict gene expression changes of selected genes from FIG. 2C by qRT-PCR (n=3, Mean±95% CI, *p<0.05, **p<0.01, ***p<0.001, one-way ANOVA). […] Downregulation of AXIN2, TCF7, LRP5, BAMBI, NKD1, PAI-1, LRP6, FZD6, FZD7, PITX2, ERBB2, and CTGF gene expression and increased levels of Wnt pathway inhibitors SFRP2 and DACT1 were determined by qPCR.
# Fifty nanograms of RNA was hybridized with Tagsets and probe pools from the nCounter® Vantage 3D™ Wnt Pathways Panel (NanoString Technologies) for 16 hrs at 67° C. Hybridized samples were ran on a nCounter® SPRINT Profiler (NanoString Technologies). Nanostring gene counts were normalized by the geometric mean of all housekeeping genes by nSolver (v3.0). P-values from normalized counts were calculated by an independent t-test and adjusted by the false discovery rate (FDR) method (Benjamini & Hochberg) to correct for multiple comparisons using R (v3.4.2). Data was plotted using R (v3.4.2).
# [3] = system: Wnt pathway activity (SW480 colon carcinoma cells stably expressing the Sp5-Luc reporter); assay: Wnt pathway activity screening assay (Sp5-Luc reporter gene assay); settings: Homo sapiens, SW480
# Experimental: The screening assay for Wnt pathway activity is described as follows.
# SW480 colon carcinoma cells were transduced with a lentiviral vector expressing luciferase with a human Sp5 promoter consisting of a sequence of eight TCF/LEF binding sites. […] These stably transduced SW480 cells were expanded in cell culture and used for all further screening activities. Each compound was dissolved in DMSO as a 10 mM stock and used to prepare compound source plates. Serial dilution (1:3, 10-point dose-response curves starting from 10 μM) and compound transfer was performed using the ECHO 550 (Labcyte, Sunnyvale, Calif.) into 384-well white solid bottom assay plates (Greiner Bio-One) with appropriate DMSO backfill for a final DMSO concentration of 0.1%. […] Following incubation, 15 μl of BriteLite Plus luminescence reagent (Perkin Elmer) was added to each well of the 384-well assay plates. The plates were placed on an orbital shaker for 2 min and then luminescence was quantified using the Envision (Perkin Elmer) plate reader.
# [4] = system: nuclear speckles in hMSCs and chondrocytes; assay: Nuclear speckles assay (phospho-SC35 immunofluorescence); type: cell-based, human; settings: 30 nM, 100 nM, 6 hrs, compared to DMSO
# Source text: Cells were stained with phospho-SC35 antibody (green) or DAPI nuclear stain (blue).
# After approximately 6 hrs, cells were fixed and stained with a phospho-SC35 antibody (Santa Cruz Biotechnology), followed by an Alexa-Fluor 488 secondary antibody (Thermo Fisher) and DAPI (Thermo Fisher). Cells were imaged at 100× magnification using the EVOS FL (Life Technologies, Carlsbad, Calif.).
# [5] = single IA injection 0.1 μg, 0.3 μg, 1 μg one-week post ACLT+pMMx, compared with vehicle
compound,measurement,setting,value
CC(C)CC(=O)Nc1cncc(-c2ccc3[nH]nc(-c4nc5c(-c6cccc(F)c6)cncc5[nH]4)c3c2)c1 [compound 123],"AKT, JNK1, cJUN, p38/MAPK and TLR4","THP1 cells; 4 hrs, compared to DMSO",not inhibited
same,"phospho-STAT3 (S727, Y705), phospho- and total NF-κB (p105/p50), and phospho-FOXO1/3a","THP1 cells; 4 hrs, compared to DMSO",dose-dependently decreased
same,"AKT, cJUN, p38/MAPK, and TLR4",THP1 cells; 20 hrs,remained unchanged
same,"NF-κB, STAT3, JNK1 and FOXO1/3a phosphorylation",THP1 cells; 20 hrs,robustly inhibited
same,phospho- or total NF-κB (p105/p50),"THP1 cells; THP1 cells + LPS, 10 mins, 30 mins, 1 hr or 2 hrs",no effects
same,phospho-STAT3 (Y705),"THP1 cells; THP1 cells + LPS, 1 hr, 2 hrs, 4 hrs and 20 hrs",inhibited
same,phospho- and total NF-κB,"THP1 cells; THP1 cells + LPS, 4 hrs and 20 hrs",decreased
same,total STAT3,"THP1 cells; THP1 cells + LPS, any timepoint",no effects
same,phosphorylation of FOXO1,FOXO1,dose-dependently inhibited
same,total FOXO1 protein levels and nuclear localization,FOXO1,increases
same,number of Wnt pathway genes with decreased expression,"[1]; ACLT+pMMx rats, Nanostring",19 genes
same,number of Wnt pathway genes with increased expression,"[1]; ACLT+pMMx rats, Nanostring",at least 8 genes
same,"CLK2, DYRK1A, SRSF1, SRSF5, and SRSF6 expression",[1]; [5],decreased
same,"phospho-SRSF, SRSF1, AXIN2, TCF7, phospho-SIRT1, phospho-FOXO1, and phospho-STAT3 (Western blot)",[1]; [5],decreased
same,number of Wnt pathway genes downregulated,[2],19 genes
same,number of Wnt pathway genes upregulated,[2],9 genes
same,EC50,[3],3.4 nM
same,nuclear speckles (spliceosome modulation),[4],enlargement of nuclear speckles

# Reference: patent publication US20230000842A1, “METHODS OF TREATING CARTILAGE DISORDERS THROUGH INHIBITION OF CLK AND DYRK” (SAMUMED, LLC, priority 2019, published 2023)
